Data: patent US20260132132A1, “3A,4,5,6-TETRAHYDRO-1 H-PYRAZOLO[3,4-C]PYRIDIN-7(7AH)-ONE DERIVATIVES AS FACTOR XIIA INHIBITORS” (KALVISTA PHARMACEUTICALS LIMITED, priority 2022, published 2026)

Tests used:
[1] = biological target: T1, Human Factor XIIa (hFXIIa) (Homo sapiens, UniProt P00748); assay: Determination of Human Factor XIIa (hFXIIa) inhibition, fluorogenic substrate IC50 assay; assay type: biochemical; details: fluorogenic substrate H-DPro-Phe-Arg-AFC at Km, 25° C., read-out: Human FXIIa IC50
T1 construct: purchased Enzyme Research Laboratories
T1 sequence (P00748 373-615 limits assumed): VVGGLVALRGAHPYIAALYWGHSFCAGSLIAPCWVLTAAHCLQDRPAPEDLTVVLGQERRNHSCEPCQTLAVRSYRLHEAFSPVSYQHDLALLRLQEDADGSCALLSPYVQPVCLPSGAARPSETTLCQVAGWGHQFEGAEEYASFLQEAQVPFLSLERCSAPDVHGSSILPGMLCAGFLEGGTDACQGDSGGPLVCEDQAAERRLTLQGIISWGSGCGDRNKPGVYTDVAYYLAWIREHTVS
T1 sequence (P00748 20-372 partner limits assumed): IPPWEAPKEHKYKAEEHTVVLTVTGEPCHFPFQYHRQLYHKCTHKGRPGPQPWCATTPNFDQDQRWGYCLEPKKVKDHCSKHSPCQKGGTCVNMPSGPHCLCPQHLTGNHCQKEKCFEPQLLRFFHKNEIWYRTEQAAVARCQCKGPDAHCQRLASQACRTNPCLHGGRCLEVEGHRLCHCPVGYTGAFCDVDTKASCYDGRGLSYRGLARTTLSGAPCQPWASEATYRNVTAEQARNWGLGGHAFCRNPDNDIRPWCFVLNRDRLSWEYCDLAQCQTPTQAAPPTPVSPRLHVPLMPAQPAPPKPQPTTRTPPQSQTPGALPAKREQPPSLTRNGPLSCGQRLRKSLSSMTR
Protocol: Determination of Human Factor XIIa (hFXIIa) inhibition
The Km for the cleavage of the substrate by hFXIIa was determined by standard transformation of the Michaelis-Menten equation, with subsequent inhibition assays performed at substrate Km concentration.

FXa = FXa (Homo sapiens, UniProt P00742); assay: Related protease inhibition: FXa, fluorogenic substrate; assay type: biochemical; details: fluorogenic substrate at Km, 25° C., H1-H3 = % activity at 40 μM; for activity at 40 µM: read-out: IC50 (human FXa) nM
Chain of FXa (P00742 235-488 limits assumed): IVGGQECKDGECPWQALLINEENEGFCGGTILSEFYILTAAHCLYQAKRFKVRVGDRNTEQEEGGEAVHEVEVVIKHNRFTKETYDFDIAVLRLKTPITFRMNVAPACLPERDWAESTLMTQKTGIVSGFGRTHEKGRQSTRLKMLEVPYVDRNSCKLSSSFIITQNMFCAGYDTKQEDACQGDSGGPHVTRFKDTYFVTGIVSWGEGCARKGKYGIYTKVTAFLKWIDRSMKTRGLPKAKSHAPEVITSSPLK
Chain of FXa (P00742 41-179 partner limits assumed): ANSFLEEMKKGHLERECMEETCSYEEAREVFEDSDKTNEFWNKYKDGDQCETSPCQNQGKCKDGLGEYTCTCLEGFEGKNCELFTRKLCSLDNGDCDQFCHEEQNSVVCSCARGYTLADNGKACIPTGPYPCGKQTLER
Protocol: (§1) Human serine protease enzyme Plasma Kallikrein, KLK1, FXa, Plasmin, Thrombin and Trypsin were assayed for enzymatic activity using an appropriate fluorogenic substrate at Km concentration, FXIa at fixed substrate concentration of 100 μM and various concentrations of the test compound.

[2] = Pharmacokinetics following a single intravenous dose and a single oral dose in rats; assay type: in vivo; details: rat, male Sprague-Dawley rats, single iv dose (nominal 1 mg/kg) and single oral dose (nominal 5 mg/kg) in 10% DMSO/10% Cremophor EL/80% SWFI, plasma by LCMS, Phoenix WinNonlin; for bioavailability: read-out: F % (oral bioavailability); for half-life: route for T½ not stated
Protocol: Pharmacokinetic studies of the compounds in Table 10 were performed to assess the pharmacokinetics following a single intravenous dose and a single oral dose in male Sprague-Dawley rats. Two rats were given a single intravenous dose of 1 ml/kg of a nominal 1 mg/ml (1 mg/kg) composition of test compound in 10% DMSO/10% Cremophor EL/80% SWFI vehicle. Two rats were given a single oral dose of 5 mL/kg of a nominal 1 mg/ml (5 mg/kg) composition of test compound in 10% DMSO/10% Cremophor EL/80% SWFI vehicle.
Following intravenous dosing, blood samples were collected over a period of 12 h. Sample times were 2, 5, 15 and 30 min then 1, 2, 4, 6, and 12 h. Following oral dosing, blood samples were collected over a period of 24 h. Sample times were 5, 15 and 30 min then 1, 2, 4, 6, 8, 12 and 24 h.
Following collection, blood samples were centrifuged and the plasma fraction analysed for concentration of test compound by LCMS. Oral bioavailability and half-life calculations from these studies were obtained using Phoenix WinNonlin (v8.0) and are shown below: […]

Thrombin = Thrombin (Homo sapiens, UniProt P00734); assay: Related protease inhibition: Thrombin, fluorogenic substrate; assay type: biochemical; details: fluorogenic substrate at Km, 25° C.; H1-H3 = % activity at 40 μM; read-out: IC50 (human thrombin) nM
Protocol: as §1

[3] = test system: patients with type I/II hereditary angioedema (HAE); details: phase 3 study; monthly prophylactic subcutaneous treatment; cited from earlier work

| Molecule | IC50 [1] | IC50 (FXa) | bioavailability [2] | half-life [2] | activity at 40 µM (FXa) | activity at 40 µM (Thrombin) | attacks in patients with type I/II hereditary angioedema (HAE) [3] |
| --- | --- | --- | --- | --- | --- | --- | --- |
| Cc1cc(CNC(=O)c2nn(-c3cccc(Cl)c3)c3c2CCN(c2cc4c(cn2)CCN(CCO)C4)C3=O)nn1C [Example 1220, 1-(3-chlorophenyl)-N-((1,5-dimethyl-1H-pyrazol-3-yl)methyl)-6-(6-(2-hydroxyethyl)-5,6,7,8-tetrahydro-2,6-naphthyridin-3-yl)-7-oxo-4,5,6,7-tetrahydro-1H-pyrazolo[3,4-c]pyridine-3-carboxamide] | 10 to 100 nM | 10000 to 40000 nM | 22% | 70 min | – | – | – |
| CN1CCc2ccc(N3CCc4c(C(=O)N[C@@H]5CCOC5)nn(-c5cccc(Cl)c5F)c4C3=O)cc2C1=O [Example 2039, (R)-1-(3-chloro-2-fluorophenyl)-6-(2-methyl-1-oxo-1,2,3,4-tetrahydroisoquinolin-7-yl)-7-oxo-N-(tetrahydrofuran-3-yl)-4,5,6,7-tetrahydro-1H-pyrazolo[3,4-c]pyridine-3-carboxamide] | 100 to 300 nM | > 40000 nM | 27% | 45 min | – | – | – |
| CN1CCOc2ccc(N3CCc4c(C(=O)N[C@@H]5CCOC5)nn(-c5cccc(Cl)c5F)c4C3=O)cc2C1=O [Example 2048, (R)-1-(3-chloro-2-fluorophenyl)-6-(4-methyl-5-oxo-2,3,4,5-tetrahydrobenzo[f][1,4]oxazepin-7-yl)-7-oxo-N-(tetrahydrofuran-3-yl)-4,5,6,7-tetrahydro-1H-pyrazolo[3,4-c]pyridine-3-carboxamide] | 10 to 100 nM | – | 57% | 49 min | 20 to 80% | > 80% | – |
| CN1CCOc2ccc(N3CCc4c(C(=O)N[C@@H](CO)C5CC5)nn(-c5cccc(Cl)c5F)c4C3=O)cc2C1=O [Example 2049, (R)-1-(3-chloro-2-fluorophenyl)-N-(1-cyclopropyl-2-hydroxyethyl)-6-(4-methyl-5-oxo-2,3,4,5-tetrahydrobenzo[f][1,4]oxazepin-7-yl)-7-oxo-4,5,6,7-tetrahydro-1H-pyrazolo[3,4-c]pyridine-3-carboxamide] | 10 to 100 nM | – | 28% | 85 min | < 20% | > 80% | – |
| Garadacimab: "a monoclonal antibody inhibitory against FXIIa" | – | – | – | – | – | – | reduce attacks |
